Common to all, as to assay: biochemical
Common to all, as to type: binding

The target of assay [1] is T1, panel of 442 kinases (Homo sapiens, UniProt Q6PHR2).
T1 construct: purchased Ambit Biosciences (scanMAXX KINOMEscan)
T1 sequence (Q6PHR2 1-472): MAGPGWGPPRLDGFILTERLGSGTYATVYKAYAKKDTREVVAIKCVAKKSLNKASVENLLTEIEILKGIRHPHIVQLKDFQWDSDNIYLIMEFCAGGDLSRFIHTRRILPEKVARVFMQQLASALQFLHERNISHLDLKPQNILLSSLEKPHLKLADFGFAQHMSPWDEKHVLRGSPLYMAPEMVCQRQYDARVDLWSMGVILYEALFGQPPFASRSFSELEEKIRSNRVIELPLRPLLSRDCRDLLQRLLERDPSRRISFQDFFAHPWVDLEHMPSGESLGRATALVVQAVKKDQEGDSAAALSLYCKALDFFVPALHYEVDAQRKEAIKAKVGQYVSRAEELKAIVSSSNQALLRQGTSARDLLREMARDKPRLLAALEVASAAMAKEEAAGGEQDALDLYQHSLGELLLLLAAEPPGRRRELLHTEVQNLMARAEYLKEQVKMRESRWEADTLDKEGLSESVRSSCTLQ
Conditions: kinase ULK3; for remaining activity at 1 µM: read-out: ULK3 (% of control at 1 µM).

The target of assay [2] is T2, panel of 442 kinases (Homo sapiens, UniProt P53779).
T2 construct: purchased Ambit Biosciences (scanMAXX KINOMEscan)
T2 sequence (P53779 whole entry): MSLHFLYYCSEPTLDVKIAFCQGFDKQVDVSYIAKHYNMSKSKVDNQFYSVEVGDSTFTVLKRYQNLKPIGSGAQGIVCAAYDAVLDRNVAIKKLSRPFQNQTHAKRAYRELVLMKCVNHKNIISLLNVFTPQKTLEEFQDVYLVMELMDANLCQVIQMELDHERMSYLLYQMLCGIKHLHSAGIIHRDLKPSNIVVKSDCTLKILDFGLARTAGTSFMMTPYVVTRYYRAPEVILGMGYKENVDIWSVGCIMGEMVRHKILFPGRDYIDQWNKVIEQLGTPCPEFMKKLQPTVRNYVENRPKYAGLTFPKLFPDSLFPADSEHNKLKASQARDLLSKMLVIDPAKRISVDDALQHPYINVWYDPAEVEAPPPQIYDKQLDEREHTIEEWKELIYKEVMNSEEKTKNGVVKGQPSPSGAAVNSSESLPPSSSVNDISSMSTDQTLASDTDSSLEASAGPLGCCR
Particulars: kinase JNK3; for remaining activity at 1 µM: read-out: % of control at 1 µM.

Assay [3] has as its target T3, panel of 442 kinases (Homo sapiens, UniProt P00533, G719S).
T3 construct: purchased Ambit Biosciences (scanMAXX KINOMEscan)
Particulars: EGFR(G719S); for remaining activity at 1 µM: read-out: % of control at 1 µM.

For assay [4], the target named is T4, panel of 442 kinases (Homo sapiens, UniProt Q9UK32).
T4 construct: purchased Ambit Biosciences (scanMAXX KINOMEscan)
T4 sequence (Q9UK32 whole entry): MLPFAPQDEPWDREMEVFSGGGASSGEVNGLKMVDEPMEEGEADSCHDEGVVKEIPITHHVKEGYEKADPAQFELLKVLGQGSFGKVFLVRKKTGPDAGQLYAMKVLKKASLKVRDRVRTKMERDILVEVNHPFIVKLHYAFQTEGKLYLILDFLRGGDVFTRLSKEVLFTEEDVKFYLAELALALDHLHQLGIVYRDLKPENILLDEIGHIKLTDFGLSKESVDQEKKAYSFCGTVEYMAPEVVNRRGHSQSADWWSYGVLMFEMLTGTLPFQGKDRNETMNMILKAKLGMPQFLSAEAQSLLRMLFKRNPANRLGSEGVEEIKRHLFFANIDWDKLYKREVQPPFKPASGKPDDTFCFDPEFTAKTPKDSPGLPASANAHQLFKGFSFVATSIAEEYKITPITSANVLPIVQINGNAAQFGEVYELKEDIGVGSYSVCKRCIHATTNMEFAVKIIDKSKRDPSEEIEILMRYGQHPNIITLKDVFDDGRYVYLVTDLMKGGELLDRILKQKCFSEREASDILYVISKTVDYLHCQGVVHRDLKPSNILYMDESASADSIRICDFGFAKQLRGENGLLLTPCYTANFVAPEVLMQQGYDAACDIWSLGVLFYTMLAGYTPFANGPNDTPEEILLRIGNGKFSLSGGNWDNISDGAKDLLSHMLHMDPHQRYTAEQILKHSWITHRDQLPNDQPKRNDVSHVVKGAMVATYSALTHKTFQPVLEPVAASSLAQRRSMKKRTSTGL

Assay [5] concerns the target T5, panel of 442 kinases (Homo sapiens, UniProt Q13163).
T5 construct: purchased Ambit Biosciences (scanMAXX KINOMEscan)
T5 sequence (Q13163 1-448): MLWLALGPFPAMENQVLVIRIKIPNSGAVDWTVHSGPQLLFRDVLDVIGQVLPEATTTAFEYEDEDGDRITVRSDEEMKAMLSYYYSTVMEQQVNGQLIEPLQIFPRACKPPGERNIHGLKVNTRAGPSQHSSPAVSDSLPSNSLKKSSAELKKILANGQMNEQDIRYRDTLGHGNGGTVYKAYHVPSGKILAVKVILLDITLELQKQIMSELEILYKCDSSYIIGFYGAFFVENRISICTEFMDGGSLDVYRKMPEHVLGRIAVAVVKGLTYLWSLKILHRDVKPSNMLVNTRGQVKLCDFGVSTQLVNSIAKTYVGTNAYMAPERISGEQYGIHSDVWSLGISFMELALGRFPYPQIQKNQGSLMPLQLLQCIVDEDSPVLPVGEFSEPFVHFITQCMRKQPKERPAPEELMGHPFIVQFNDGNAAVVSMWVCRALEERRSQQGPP
Conditions: kinase MEK5; for remaining activity at 1 µM: read-out: % of control at 1 µM.

Assay [6] addresses T6, panel of 442 kinases (Homo sapiens, UniProt Q9UIK4).
T6 construct: purchased Ambit Biosciences (scanMAXX KINOMEscan)
Particulars: DAPK2; for remaining activity at 1 µM: read-out: % of control at 1 µM.

For assay [7], the target named is T7, panel of 442 kinases (Homo sapiens, UniProt P54760).
T7 construct: purchased Ambit Biosciences (scanMAXX KINOMEscan)
T7 sequence (P54760 16-987): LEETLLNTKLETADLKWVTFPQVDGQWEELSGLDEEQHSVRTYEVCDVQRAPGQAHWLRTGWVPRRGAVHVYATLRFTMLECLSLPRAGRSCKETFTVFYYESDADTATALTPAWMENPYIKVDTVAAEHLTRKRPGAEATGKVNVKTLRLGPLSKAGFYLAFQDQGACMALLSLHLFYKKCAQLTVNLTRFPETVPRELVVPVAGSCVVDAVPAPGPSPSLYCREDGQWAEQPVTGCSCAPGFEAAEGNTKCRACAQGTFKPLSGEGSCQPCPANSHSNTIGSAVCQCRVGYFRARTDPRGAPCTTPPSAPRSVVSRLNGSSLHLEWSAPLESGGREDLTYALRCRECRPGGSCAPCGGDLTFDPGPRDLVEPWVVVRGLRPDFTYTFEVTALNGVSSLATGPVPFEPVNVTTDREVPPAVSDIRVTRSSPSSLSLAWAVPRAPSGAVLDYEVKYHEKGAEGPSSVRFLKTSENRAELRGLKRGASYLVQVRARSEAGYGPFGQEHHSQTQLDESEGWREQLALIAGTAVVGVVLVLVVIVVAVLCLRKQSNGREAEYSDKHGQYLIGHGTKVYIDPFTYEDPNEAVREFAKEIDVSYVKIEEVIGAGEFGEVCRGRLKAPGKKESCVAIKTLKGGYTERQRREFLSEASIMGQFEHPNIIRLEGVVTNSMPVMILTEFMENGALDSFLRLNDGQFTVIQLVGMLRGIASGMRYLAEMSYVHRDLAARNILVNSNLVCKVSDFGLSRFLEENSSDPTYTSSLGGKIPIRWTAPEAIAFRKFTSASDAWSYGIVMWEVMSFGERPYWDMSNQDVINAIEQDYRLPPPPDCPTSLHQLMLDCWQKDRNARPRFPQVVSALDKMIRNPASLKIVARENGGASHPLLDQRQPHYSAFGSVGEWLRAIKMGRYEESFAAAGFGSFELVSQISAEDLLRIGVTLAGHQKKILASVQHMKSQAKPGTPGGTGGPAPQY
Particulars: EPHB4; for remaining activity at 1 µM: read-out: % of control at 1 µM.

[8] abbreviates: 10 µM, read-out: % of control at 10 µM.
[9] abbreviates: kinase RSK4(Kin.Dom.1-N-terminal), read-out: RSK4(Kin.Dom.1-N-terminal) (% of control at 1 µM).
Setting [10] is: kinase RSK4(Kin.Dom.2-C-terminal), read-out: RSK4(Kin.Dom.2-C-terminal) (% of control at 1 µM).

Structures are written as SMILES. Where two headings read alike, the source gives them in different places.

T6 sequence (Q9UIK4 whole entry): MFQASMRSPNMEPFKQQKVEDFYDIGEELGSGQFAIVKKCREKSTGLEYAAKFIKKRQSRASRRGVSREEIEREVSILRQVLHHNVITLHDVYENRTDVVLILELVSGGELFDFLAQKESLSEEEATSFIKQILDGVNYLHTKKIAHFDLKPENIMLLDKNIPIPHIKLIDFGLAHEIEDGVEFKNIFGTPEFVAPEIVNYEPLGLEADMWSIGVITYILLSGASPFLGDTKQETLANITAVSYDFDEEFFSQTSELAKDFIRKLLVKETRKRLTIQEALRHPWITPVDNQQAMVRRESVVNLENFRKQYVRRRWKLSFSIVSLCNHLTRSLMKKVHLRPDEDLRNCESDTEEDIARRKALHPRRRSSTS
T3 sequence (P00533 25-1210 G719S): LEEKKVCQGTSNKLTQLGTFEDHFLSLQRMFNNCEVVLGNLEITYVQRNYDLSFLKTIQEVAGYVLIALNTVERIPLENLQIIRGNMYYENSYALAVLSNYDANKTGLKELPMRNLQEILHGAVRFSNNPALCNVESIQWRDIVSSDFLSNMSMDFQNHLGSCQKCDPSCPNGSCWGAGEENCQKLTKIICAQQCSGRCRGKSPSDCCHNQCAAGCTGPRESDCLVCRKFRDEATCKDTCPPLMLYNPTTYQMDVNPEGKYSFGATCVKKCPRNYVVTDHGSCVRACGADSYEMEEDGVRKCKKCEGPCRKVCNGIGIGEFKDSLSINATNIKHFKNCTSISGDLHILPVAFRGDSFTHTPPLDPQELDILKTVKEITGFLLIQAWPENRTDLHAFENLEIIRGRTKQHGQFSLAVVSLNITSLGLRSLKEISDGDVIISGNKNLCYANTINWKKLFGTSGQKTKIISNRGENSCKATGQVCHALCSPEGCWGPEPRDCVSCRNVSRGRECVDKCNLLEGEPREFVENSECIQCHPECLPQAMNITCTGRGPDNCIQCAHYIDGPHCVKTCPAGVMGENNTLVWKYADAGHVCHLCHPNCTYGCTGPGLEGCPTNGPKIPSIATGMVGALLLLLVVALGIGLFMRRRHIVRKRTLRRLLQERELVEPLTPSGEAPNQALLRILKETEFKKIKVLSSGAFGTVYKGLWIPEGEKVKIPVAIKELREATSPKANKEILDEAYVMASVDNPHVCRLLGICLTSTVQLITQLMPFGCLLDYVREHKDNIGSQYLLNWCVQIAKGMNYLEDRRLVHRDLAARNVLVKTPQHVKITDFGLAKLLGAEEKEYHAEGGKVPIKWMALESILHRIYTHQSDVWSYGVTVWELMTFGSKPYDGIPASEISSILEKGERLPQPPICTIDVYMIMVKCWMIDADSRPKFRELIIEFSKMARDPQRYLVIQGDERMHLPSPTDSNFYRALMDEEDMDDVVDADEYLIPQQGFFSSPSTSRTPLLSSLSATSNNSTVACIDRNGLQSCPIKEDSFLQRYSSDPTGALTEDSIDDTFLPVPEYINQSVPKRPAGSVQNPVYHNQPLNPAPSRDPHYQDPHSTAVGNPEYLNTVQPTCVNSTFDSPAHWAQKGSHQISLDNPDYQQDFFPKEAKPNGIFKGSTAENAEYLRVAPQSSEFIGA

Turning to `Nc1cc(C(F)(F)F)c(-c2cc(N3CCOCC3)nc(N3CCOCC3)n2)cn1` [Buparlisib], the remaining activity at 1 µM was 100% on panel of 442 kinases [1]; 100% at panel of 442 kinases [2]; 100% on panel of 442 kinases [3]; 99% on panel of 442 kinases [4] (setting [9]); 100% at panel of 442 kinases [4] (setting [10]); 88% at panel of 442 kinases [5]. In addition, the remaining activity at 1 µM on panel of 442 kinases [6] and on panel of 442 kinases [7] was 100% throughout. Also, the remaining activity at 10 µM on panel of 442 kinases [1] (10 µM, read-out: ULK3 (% of control at 10 µM)) worked out at 100%; on panel of 442 kinases [2] (setting [8]), 100%; on panel of 442 kinases [3] (setting [8]) it was 95%; at panel of 442 kinases [4] (kinase RSK4(Kin.Dom.1-N-terminal), read-out: RSK4(Kin.Dom.1-N-terminal) (% of control at 10 µM)) it was 100%; at panel of 442 kinases [4] (kinase RSK4(Kin.Dom.2-C-terminal), read-out: RSK4(Kin.Dom.2-C-terminal) (% of control at 10 µM)), 100%; at panel of 442 kinases [5] (setting [8]), 85%. In addition, the remaining activity at 10 µM at panel of 442 kinases [6] (setting [8]) and on panel of 442 kinases [7] (setting [8]) was 100% throughout.
Regarding `Cn1c(=O)n(-c2ccc(C(C)(C)C#N)cc2)c2c3cc(-c4cnc5ccccc5c4)ccc3ncc21` [Dactolisib, 2-methyl-2-[4-(3-methyl-2-oxo-8-quinolin-3-yl-2,3-dihydroimidazo[4,5-c]quinolin-1-yl)-phenyl] propionitrile], the remaining activity at 1 µM on panel of 442 kinases [1] amounted to 100%; at panel of 442 kinases [2], 100%; on panel of 442 kinases [3], 99%; on panel of 442 kinases [4] (setting [9]), 71%; at panel of 442 kinases [4] (setting [10]), 82%; at panel of 442 kinases [5], 42%. Besides, the remaining activity at 1 µM on panel of 442 kinases [6] and on panel of 442 kinases [7] was 97% throughout.
`FC(F)c1nc2ccccc2n1-c1nc(N2CCOCC2)nc(N2CCOCC2)n1` [ZSTK474, 2-(difluoromethyl)-1-[4,6-di(4-morpholinyl)-1,3,5-triazin-2-yl]-1H-benzimidazole]: the remaining activity at 1 µM on panel of 442 kinases [1] was determined as 97%; on panel of 442 kinases [2], 100%; at panel of 442 kinases [3], 100%; at panel of 442 kinases [4] (setting [9]), 81%; on panel of 442 kinases [4] (setting [10]), 91%; at panel of 442 kinases [5], 99%. For the same molecule, the values for the remaining activity at 1 µM at panel of 442 kinases [6] and at panel of 442 kinases [7] were 100% and 92%, respectively.
`COc1ncc(-c2ccc3nccc(-c4ccnnc4)c3c2)cc1NS(=O)(=O)c1ccc(F)cc1F` [Omipalisib]: the remaining activity at 1 µM at panel of 442 kinases [1] is 100%; at panel of 442 kinases [2], 90%; on panel of 442 kinases [3], 78%; on panel of 442 kinases [4] (setting [9]) it was 88%; at panel of 442 kinases [4] (setting [10]), 79%; on panel of 442 kinases [5] it was 69%. Also, the remaining activity at 1 µM on panel of 442 kinases [6] and on panel of 442 kinases [7] was 100% throughout.

The record behind these values is article PMC5564600 (Oncotarget, 2017).
